Results as given in patent US11254668B2, “Pyrazolo[1,5-A]pyrazin-4-yl and related derivatives” (Pfizer Inc., priority 2017, dated 2022).
Read-outs that look alike come from different tables or passages of the source.

How the values were obtained:
JAK2 = JAK2 (Homo sapiens (Human), UniProt O60674); assay: JAK Caliper Enzyme Assay at 1 mM ATP, JAK2; format: biochemical
Outline: (§1)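 First, compound was incubated at room temperature with recombinant human kinase domain, a synthetic peptide and 1 mM ATP until 20–30% of peptide was phosphorylated. Next, EDTA stopped the reaction. Finally, electrophoretic separation quantified product, and percent effect relative to controls was plotted against concentration.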

TYK2 = TYK2 (Homo sapiens (Human), UniProt P29597); assay: JAK Caliper Enzyme Assay at 1 mM ATP, TYK2; format: biochemical
Outline: as §1

JAK3 = JAK3 (Homo sapiens (Human), UniProt P52333); assay: JAK Caliper Enzyme Assay at 1 mM ATP, JAK3; format: biochemical
Outline: (§2)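 IC50 (nM) derived from percent conversion of fluorescently labelled peptide, measured by Caliper LabChip mobility-shift separation after EDTA stop. Each JAK family kinase domain (human, recombinant) run at 1 mM ATP and room temperature, conditions set to 20-30% product; DMSO wells define uninhibited baseline.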

[1] = system: IL-12 signaling (TYK2 and JAK2), STAT4 phosphorylation; assay: Human Whole Blood IL-12 Induced STAT4 Phosphorylation Assay; format: cell-based; settings: IL-12 5 ng/mL, pSTAT4 in lymphocytes by flow cytometry
Experimental: Selected compounds were assessed for their ability to inhibit IL-12 signaling in a human whole blood flow cytometry assay. IL-12 signals through TYK2 and JAK2.
Human Whole Blood IL-12 Induced STAT4 Phosphorylation Assay
Test articles were prepared as 30 mM stocks in DMSO. An 11-point 2.5 dilution series was created in DMSO with a top concentration of 10 mM. Further dilution was done by adding 4 μL of the above test article solutions into 96 μL of PBS with a top concentration of 400 μM. Human whole blood was collected from healthy donors via vein puncture into Vacutainer collection tubes containing sodium heparin (Catalog No. 366480; Becton Dickinson, Franklin Lakes, N.J.). Blood was warmed to 37° C. prior to use. Human whole blood was aliquoted ([…]) in 96-well, deep-well, V-bottom plates and treated with compounds at 11 different concentrations (0.2% DMSO final) at 37° C. for 60 minutes. This was followed by a challenge with IL-12 ([…]; final, 5 ng/mL) for 15 minutes. Samples were treated with warm 1× Lyse/Fix buffer ([…]) to terminate activation and further incubated at 37° C. for 20 minutes to lyse red blood cells. Plates were centrifuged at 300×g for 5 minutes, supernatant was aspirated, and cells were washed with […] of staining buffer (PBS containing 0.5% fetal bovine serum and 0.01% sodium azide). The washed cell pellets were resuspended with […] of pre-chilled 90% methanol, and incubated at 4° C. for 30 minutes. Plates were centrifuged at 300×g for 5 minutes, supernatant containing 90% methanol was aspirated, and cells were washed with […] of staining buffer. Cell pellets were resuspended in staining buffer containing anti-pSTAT4-AlexaFluor647 (1 to 150 dilution, […]), and incubated at room temperature in the dark overnight.
Samples were transferred to 96-well U-bottom plates and flow cytometric analysis was performed on a FACSCalibur or LSRFortessa equipped with a HTS plate loader (BD Biosciences). The lymphocyte population was gated for histogram analysis of pSTAT4. Background fluorescence was defined using unstimulated cells and a gate was placed at the foot of the peak to include ˜0.5% gated population. The histogram statistical analysis was performed using CellQuestÔ Pro version 5.2.1 (BD Biosciences) or FACSDiva version 6.2 (BD Biosciences) software. Relative fluorescence unit (RFU), which measures the level of phospho STAT4, was calculated by multiplying the percent positive population and its mean fluorescence. Data from 11 compound concentrations (singlicate at each concentration) was normalized as a percentage of control based on the formula: % of Control=100'(A−B)/(C−B) where A is the RFU from wells containing compound and IL-12, B is the RFU from wells without IL-12 and compound (minimum fluorescence) and C is the RFU from wells containing only IL-12 (maximum fluorescence). Inhibition curves and IC50 values were determined using the Prism version 5 software (GraphPad, La Jolla, Calif.).

JAK1 = JAK1 (Homo sapiens (Human), UniProt P23458); assay: JAK Caliper Enzyme Assay at 1 mM ATP, JAK1; format: biochemical
Outline: as §2

Chain of TYK2 (P29597 897-1176): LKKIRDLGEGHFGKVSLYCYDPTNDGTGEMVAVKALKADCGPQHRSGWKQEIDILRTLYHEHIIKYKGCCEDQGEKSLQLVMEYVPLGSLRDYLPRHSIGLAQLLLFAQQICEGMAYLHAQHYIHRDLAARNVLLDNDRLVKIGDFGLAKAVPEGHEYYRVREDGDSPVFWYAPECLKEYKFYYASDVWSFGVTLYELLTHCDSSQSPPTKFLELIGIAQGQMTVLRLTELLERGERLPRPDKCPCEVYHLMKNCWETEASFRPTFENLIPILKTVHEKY
Chain of JAK3 (P52333 822-1111): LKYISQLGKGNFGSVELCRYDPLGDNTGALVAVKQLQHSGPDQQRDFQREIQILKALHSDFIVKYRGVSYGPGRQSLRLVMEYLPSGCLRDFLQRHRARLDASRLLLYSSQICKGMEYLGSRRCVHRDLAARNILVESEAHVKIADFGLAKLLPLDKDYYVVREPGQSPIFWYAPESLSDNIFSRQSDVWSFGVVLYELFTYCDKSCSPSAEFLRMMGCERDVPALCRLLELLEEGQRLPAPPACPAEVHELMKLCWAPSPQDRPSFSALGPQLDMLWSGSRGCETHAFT
Chain of JAK1 (P23458 875-1153): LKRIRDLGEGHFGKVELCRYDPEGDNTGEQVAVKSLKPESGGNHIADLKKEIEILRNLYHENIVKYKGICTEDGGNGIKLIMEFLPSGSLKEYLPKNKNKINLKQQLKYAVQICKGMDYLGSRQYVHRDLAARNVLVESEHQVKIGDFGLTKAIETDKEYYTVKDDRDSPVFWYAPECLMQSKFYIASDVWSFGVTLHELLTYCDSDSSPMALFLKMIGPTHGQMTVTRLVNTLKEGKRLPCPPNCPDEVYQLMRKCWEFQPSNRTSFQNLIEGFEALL
Chain of JAK2 (O60674 849-1124): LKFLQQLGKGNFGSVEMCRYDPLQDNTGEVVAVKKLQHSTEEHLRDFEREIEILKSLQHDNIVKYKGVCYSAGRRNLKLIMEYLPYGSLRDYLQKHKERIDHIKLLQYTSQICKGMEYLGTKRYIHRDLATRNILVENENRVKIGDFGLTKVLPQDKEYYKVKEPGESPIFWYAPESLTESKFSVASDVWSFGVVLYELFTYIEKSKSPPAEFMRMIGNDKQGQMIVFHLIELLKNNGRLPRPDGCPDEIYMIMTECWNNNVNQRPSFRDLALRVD

Structure (SMILES)	IC50 (JAK2)	IC50 (TYK2)	IC50 (JAK3)	IC50 ([1]; Lymphocyte)	IC50 (JAK1)	IC50 [1]	IC50 (JAK2; JAK Caliper enzyme assay)	IC50 (TYK2; JAK Caliper enzyme assay)	IC50 (JAK3; JAK Caliper enzyme assay)	IC50 (JAK1; JAK Caliper enzyme assay)
N#CCN1CC(CC#N)(n2ccc(-c3nc(-c4cnn(C5COC5)c4)cc4ncccc34)n2)C1 [Example 120, 2,2′-[3-(3-{7-[1-(oxetan-3-yl)-1H-pyrazol-4-yl]-1,6-naphthyridin-5-yl}-1H-pyrazol-1-yl)azetidine-1,3-diyl]diacetonitrile]	28 nM	15 nM	8520 nM	44 nM	521 nM					
N#CC[C@]1(n2ncc(-c3cc(-c4cn[nH]c4)cc4ncccc34)n2)C[C@H](C#N)C1 [Example 315, trans-3-(cyanomethyl)-3-{4-[7-(1H-pyrazol-4-yl)quinolin-5-yl]-2H-1,2,3-triazol-2-yl}cyclobutanecarbonitrile]	215 nM	19 nM	> 10000 nM		524 nM	123 nM				
Cn1cc(-c2cc(-c3cnn([C@]4(CC#N)C[C@H](C#N)C4)c3)n3ccnc3c2)cn1 [Example 458, cis-3-(cyanomethyl)-3-{4-[7-(1-methyl-1H-pyrazol-4-yl)imidazo[1,2-a]pyridin-5-yl]-1H-pyrazol-1-yl}cyclobutanecarbonitrile]						177 nM	204 nM	25 nM	> 10000 nM	1680 nM
